Where two headings read alike, the source gives them in different places.
Target: T1, β-secretase(BACE) (Homo sapiens, UniProt P56817)
T1 construct: purchased Panvera
Assay: BACE FS1% Inhibition Assay
Assay type: biochemical
Conditions: FS1 substrate; for % Inhibition (FS) 10 μM: 10 μM test compound
Experimental: BACE FS1% Inhibition Assay The following reagents were used in this assay: sodium acetate, PEG8000 (Sigma), DMSO, HEPES, FS1 substrate [[…]] […] The FS1-substrate stock solution was prepared in DMSO as a 10 mg/mL solution. The FS1-substrate working solution was prepared by diluting the 10 mg/mL stock solution with substrate assay buffer to a final concentration of 300 μg/mL. The β-secretase (BACE) working solution was prepared by diluting a 0.83 mg/mL BACE stock solution with enzyme assay buffer to a final concentration of 4 μg/mL. Test compounds were dissolved in DMSO to 10 mM. […] The screening procedure for this assay was as follows: 15 μL of BACE working solution was pipetted into each well of a 96-well plate. To each well was then pipetted 2 μL of test compound at the selected concentration. Test compound and BACE were then mixed with a pipettor and incubated for 20 min at room temperature. To each well was then added 10 μL of the FS1 substrate working solution. The plates were then incubated for 1 hour at room temperature. […] The procedure for the blank was as follows. 15 μL of assay buffer was pipetted into each well to be used as a blank control. To each well was then added 2 μL of vehicle and 10 μL of FS1-substrate working solution. The plates were then incubated for 1 hour at room temperature. […] The procedure for the positive control was as follows: 15 μL of BACE working solution was pipetted into each well to be used as a positive control. To each well was then pipetted 2 μL of vehicle. Vehicle and BACE were then mixed with a pipettor and incubated for 20 min at room temperature. To each well was then added 10 μL of the FS1 substrate working solution. The plates were then incubated for 1 hour at room temperature. […] For test compounds, % inhibition was determined at each concentration as follows: [formula]

[1] = 0.3 μM test compound, read-out: % Inhibition (FS)
[2] = 1 μM test compound, read-out: % Inhibition (FS)
[3] = 3 μM test compound, read-out: % Inhibition (FS)

T1 sequence (P56817 46-501): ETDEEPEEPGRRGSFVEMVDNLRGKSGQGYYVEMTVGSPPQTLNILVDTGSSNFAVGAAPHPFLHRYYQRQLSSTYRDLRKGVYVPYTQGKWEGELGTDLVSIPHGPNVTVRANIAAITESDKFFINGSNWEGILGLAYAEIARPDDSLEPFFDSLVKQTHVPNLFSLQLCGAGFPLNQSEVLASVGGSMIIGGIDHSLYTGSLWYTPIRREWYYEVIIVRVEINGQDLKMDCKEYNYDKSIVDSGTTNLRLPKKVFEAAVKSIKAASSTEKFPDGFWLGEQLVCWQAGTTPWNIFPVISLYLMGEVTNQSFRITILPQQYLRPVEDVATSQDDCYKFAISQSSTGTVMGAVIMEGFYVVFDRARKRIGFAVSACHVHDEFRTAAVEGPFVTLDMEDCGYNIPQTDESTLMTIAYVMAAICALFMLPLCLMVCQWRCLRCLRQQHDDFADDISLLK

Compound	% Inhibition (FS) 0.3 μM (0.3 μM test compound) [%]	% Inhibition (FS) 1 μM (1 μM test compound) [%]	% Inhibition (FS) 3 μM (3 μM test compound) [%]	further results
CC(=O)Nc1ccc(C(=O)NCCN2Cc3cc(-c4cccc(CO)c4)ccc3N=C2N)cc1 [Compound 593]	<30	<30	<30	
CCCCc1ccc(C(=O)NCCN2Cc3cc(Oc4ccccc4)ccc3N=C2N)cc1 [Compound 157]			<30	% Inhibition (FS) 10 μM: 50%
CC(C)[C@@H](CNC(=O)C12CC3CC(CC(C3)C1)C2)N1Cc2cc(Oc3ccccc3)ccc2N=C1N [Compound 553]	<30	<30	49	
CC(c1ccccc1)c1ccc2c(c1)CN(Cc1cccc(C(=O)N(C)C3CCCCC3)c1)C(N)=N2 (stereo not drawn) [Compound 332]	<30	<30	<30	
NC1=Nc2ccc(Oc3ccccc3)cc2CN1C1CCN(C(=O)C2CCCCC2)CC1 [Compound 522]				inhibition at 0.3 µM (0.3 μM test compound, read-out: % Inhibition (FS) 0.3 μM): < 30%; inhibition at 1 µM (1 μM test compound, read-out: % Inhibition (FS) 1 μM): < 30%; inhibition at 3 µM (3 μM test compound, read-out: % Inhibition (FS) 3 μM): 79%
CC(=O)N1CCC(C(=O)NCCN2Cc3cc(-c4ccccc4C)ccc3N=C2N)CC1 [Compound 695]				% Inhibition (FS) (0.3 μM test compound): <30%; % Inhibition (FS) (1 μM test compound): <30%; % Inhibition (FS) (3 μM test compound): 54%
CN(CC(=O)O)C(=O)CCC(C1CCCCC1)N1Cc2cc(Oc3ccccc3)ccc2N=C1N (stereo not drawn) [Compound 767]				% Inhibition (FS) (0.3 μM test compound): <30%; % Inhibition (FS) (1 μM test compound): 71%; % Inhibition (FS) (3 μM test compound): 106%
CN(C(=O)c1cccc(CN2Cc3cc(-c4ccccc4-c4ccccc4)ccc3N=C2N)c1)C1CCCCC1 [Compound 321]	−33	<30	<30	
COc1ccc(Sc2ccc3c(c2)CN(Cc2cccc(C(=O)N(C)C4CCCCC4)c2)C(N)=N3)cc1OC [Compound 411]	<30	<30	55	
CN(C(=O)c1cccc(CN2Cc3cc(Sc4ccc5ccccc5c4)ccc3N=C2N)c1)C1CCCCC1 [Compound 415]	<30	<30	63	
CCCC(CNC(=O)C1CCCCC1)N1Cc2cc(Oc3ccccc3)ccc2N=C1N (stereo not drawn) [Compound 554]				% Inhibition (FS) 0.3 μM (0.3 μM test compound, 0.3 µM): <30%; % Inhibition (FS) 1 μM (1 μM test compound, 1 µM): <30%; % Inhibition (FS) 3 μM (3 μM test compound, 3 µM): 42%
CC1CCN(C(=O)CCCC(CCC(=O)N2CCC(C)CC2)N2Cc3cc(Oc4ccccc4)ccc3N=C2N)CC1 (stereo not drawn) [Compound 532]	<30	<30	68	
CCCC(=O)NCCN1Cc2cc(-c3ccc4ccccc4c3)ccc2N=C1N [Compound 666]				% Inhibition (FS) (0.3 μM test compound): 37%; % Inhibition (FS) (1 μM test compound): <30%; % Inhibition (FS) (3 μM test compound): <30%
Cc1cccc(C)c1Oc1ccc2c(c1)CN(Cc1cccc(C(=O)N(C)C3CCCCC3)c1)C(N)=N2 [Compound 475]	<30	<30	<30	
CCCN(CC1CC1)C(=O)c1cccc(CN2Cc3cc(Oc4ccccc4)ccc3N=C2N)c1 [Compound 197]	<30	<30	32	
CN(C(=O)c1cccc(CN2Cc3cc(Oc4ccc5c(c4)CCCC5)ccc3N=C2N)c1)C1CCCCC1 [Compound 233]	<30	32	36	
CN(CCN1Cc2cc(Oc3ccccc3)ccc2N=C1N)C1CCCCC1 [Compound 429]	<30	<30	<30	

Compound	% Inhibition (FS) 0.3 μM (0.3 μM test compound) [%]	% Inhibition (FS) 1 μM (1 μM test compound) [%]	% Inhibition (FS) 3 μM (3 μM test compound) [%]	further results
NC1=Nc2ccc(Oc3ccccc3)cc2CN1C(c1ccccc1)c1cccc(C(=O)N(C2CCCCC2)C2CCCCC2)c1 (stereo not drawn) [Compound 132]			54	% Inhibition (FS) 10 μM: 118%
CSc1ccccc1-c1ccc2c(c1)CN(CCNC(=O)C1CCCCC1)C(N)=N2 [Compound 540]	<30	30	84	
CSc1ccccc1-c1ccc2c(c1)CN(Cc1cccc(C(=O)N(C)C3CCCCC3)c1)C(N)=N2 [Compound 322]	<30	<30	95	
CN(C(=O)CC[C@@H](C1CCCCC1)N1Cc2cc(Oc3ccccc3)ccc2N=C1N)C1CCC(=O)CC1 [Compound 711]				% Inhibition (FS) (0.3 μM test compound): <30%; % Inhibition (FS) (1 μM test compound): 43%; % Inhibition (FS) (3 μM test compound): 113%
NC1=Nc2ccc(-c3ccccc3)cc2CN1CCNC(=O)CCC(F)(F)F [Compound 684]				% Inhibition (FS) (0.3 μM test compound): 33%; % Inhibition (FS) (1 μM test compound): 38%; % Inhibition (FS) (3 μM test compound): 78%
NC1=Nc2ccc(Oc3ccccc3)cc2CN1Cc1cccc(CNC(=O)C2CCCCC2)c1 [Compound 306]	<30	<30	46	
NC1=Nc2ccc(-c3ccccc3F)cc2CN1CCNC(=O)C1CCC(C(F)(F)F)CC1 (stereo not drawn) [Compound 688]				% Inhibition (FS) (0.3 μM test compound): <30%; % Inhibition (FS) (1 μM test compound): 36%; % Inhibition (FS) (3 μM test compound): 81%
CCCCCC1CCC(C(=O)NCCN2Cc3cc(Oc4ccccc4)ccc3N=C2N)CC1 (stereo not drawn) [Compound 182]	<30	<30	38	
NC1=Nc2ccc(Oc3ccccc3)cc2CN1Cc1cccc(N)c1 [Compound 811]				inhibition at 0.3 µM [1]: < 30%; inhibition at 1 µM [2]: < 30%; inhibition at 3 µM [3]: < 30%
CN(C(=O)CCC(C1CCCCC1)N1Cc2cc(Oc3ccccc3)ccc2N=C1N)C1CCC(c2nn[nH]n2)CC1 (stereo not drawn) [Compound 770]				% Inhibition (FS) (0.3 μM test compound): <30%; % Inhibition (FS) (1 μM test compound): <30%; % Inhibition (FS) (3 μM test compound): <30%
CN(C(=O)CCC(C1CCCCC1)N1Cc2cc(Oc3ccccc3)ccc2N=C1N)C1CCOCC1 (stereo not drawn) [Compound 633]	<30	30	70	
CNC(=O)c1ccccc1Sc1ccc2c(c1)CN(Cc1cccc(C(=O)N(C)C3CCCCC3)c1)C(N)=N2 [Compound 416]	<30	<30	−3	
NC1=Nc2ccc(Br)cc2CN1CCNC(=O)C1CCCCC1 [Compound 806]				inhibition at 0.3 µM [1]: < 30%; inhibition at 1 µM [2]: < 30%; inhibition at 3 µM [3]: < 30%
CC(C)(C)OC(=O)N1CCC(CN2Cc3cc(Oc4ccccc4)ccc3N=C2N)CC1 [Compound 509]	<30	<30	41	
COc1ccccc1-c1ccc2c(c1)CN(Cc1cccc(C(=O)N(C)C3CCCCC3)c1)C(NC(C)=O)=N2 [Compound 607]	94	116	123	
COc1cccc(C(=O)NCCN2Cc3cc(Oc4ccccc4)ccc3N=C2N)c1 [Compound 217]	<30	<30	56	
CN(C(=O)c1ccc2c(c1)C(N1Cc3cc(Oc4ccccc4)ccc3N=C1N)CC2)C1CCCCC1 (stereo not drawn) [Compound 145]			<30	% Inhibition (FS) 10 μM: 37%

Source: US8383637B2, “2-amino-quinazoline derivatives useful as inhibitors of β-secretase (BACE)” (Jansssen Pharmaceutica N.V., priority 2004, dated 2013)
